Measurements published in patent US12275684B2, “Methods for making and using endoxifen” (Atossa Therapeutics, Inc., priority 2017, dated 2025).
Read-outs that look alike come from different tables or passages of the source.

Test: Placebo controlled, dose escalation pharmacokinetic study of oral (Z)-Endoxifen capsules (serum endoxifen; incl. accumulation ratios and dose linearity)
Format: in vivo, human
Conditions: female, human, serum
Excerpt: An objective of the study was to assess the safety and tolerability of oral (Z)-Endoxifen when administered […] orally as a capsule to healthy female volunteers. A secondary objective was to assess the pharmacokinetics of multiple doses of oral (Z)-Endoxifen in the subjects.
Generally, healthy female volunteers aged ≥18 years and ≤65 years were enrolled. 24 participants were enrolled in 3 cohorts and will be administered study drug orally. Three dose levels of orally administered (Z)-Endoxifen were investigated in 3 cohorts. In each cohort participants were randomized to receive an oral (Z)-Endoxifen or placebo in a blinded fashion. Enteric-resistant capsules used in the study were designed as delayed release capsules to resist rupture for at least 30 minutes, but typically, for about 2 hours, under gastric conditions and then open fully in intestinal fluid (DRCaps; Capsugel, a Lonza Company, USA). Enteric-resistant (Swedish Orange size Zero (0); Capsugel, USA) DRCaps capsules manually filled with 1, 2 or 4 mg of (Z)-endoxifen neat in compliance with GMP requirements were used. Placebo capsules contained microcrystalline cellulose an inert common capsule and tablet excipient.
Each cohort enrolled 8 participants, with 6 participants receiving (Z)-Endoxifen 1 mg capsules orally at 1 mg (Cohort 1), 2 mg (Cohort 2) or 4 mg (Cohort 3) doses and 2 participants receiving matching placebo capsules. In Cohort 1 (Dose Level=1 mg) two participants (sentinels) were dosed 24 hours prior to the remaining participants. One sentinel was dosed with (Z)-Endoxifen and the other with placebo. The remaining six participants in Cohort 1 were dosed as no safety concerns were identified in the sentinel participants. The non-sentinel participants in Cohort 1 were admitted to the clinical research facility at least one day later than the sentinels. There were no sentinels in Cohorts 2 and 3.
Participant engagement in this study was for a period of 56 days. These included a 28 day screening period, and a 7 day post treatment period for Pharmacokinetic (PK) sampling. There were two confinement periods, one at the beginning and one at the end of the dosing periods. Participants were confined to the clinical facility on Days-1 through to Day 2 and Days 21 and 22. If participants were to experience any clinically significant adverse events during the study, they would have been required to remain in the clinical facility for further observation at the discretion of the Principal Investigator (PI).
Healthy female volunteers were screened within 28 days prior to commencement of dosing. Participants were admitted to the clinical facility on Day-1 for up to 3 days. The first dose of (Z)-Endoxifen or placebo capsules was administered on Day 1. Following completion of all safety assessments and sampling for PK analyses, participants were discharged from the clinical facility on Day 2. The first dose on Day 1 was followed by a 6-day treatment free period (Days 2-7). Each participant returned to the clinical facility for PK blood draws and safety assessments during the treatment free period on study Days 4 and 6. On Day 8 participants commenced daily administration of (Z)-Endoxifen capsules or placebo capsules for 14 consecutive days (Days 8-21). Participants were supplied with study drug capsules and asked to self administer daily. Participants visited the clinical facility on Days 11, 14 and 17, prior to dose administration, for PK blood draws and safety assessments. On the morning of Day 21 each participant returned to the clinical facility prior to dose administration and were confined to the facility until Day 22 to allow for the collection of PK blood draws and safety assessments. The Day 21 dose was the last administration of study drug. Participants were discharged from the clinical facility on Day 22 and returned for PK blood draws and safety assessments on study Days 24, 26, and 28. […]

CC/C(=C(\c1ccc(O)cc1)c1ccc(OCCNC)cc1)c1ccccc1 [(Z)-Endoxifen, (Z)-4-(1-(4-(2-(methylamino)ethoxy)phenyl)-2-phenylbut-1-enyl) phenol]
AUC(0-inf) (oral, 2 mg, Day 1, 2 mg, N 6, read-out: AUC0-inf, Mean): 1110 ng·h/mL
AUC(0-inf) (oral, 2 mg, Day 1, 2 mg, N 6, read-out: AUC0-inf, Median): 1100 ng·h/mL
AUC(0-t) (oral, 2 mg, Day 1, 2 mg, N 6, read-out: AUC24hr, GeoMean): 301 ng·h/mL
AUC(0-t) (oral, 2 mg, Day 1, 2 mg, N 6, read-out: AUC24hr, Mean): 305 ng·h/mL
AUC(0-t) (oral, 2 mg, Day 1, 2 mg, N 6, read-out: AUC24hr, Median): 303 ng·h/mL
AUC(0-t) (oral, 2 mg, Day 1, 2 mg, N 6, read-out: AUCTlast, GeoMean): 862 ng·h/mL
AUC(0-t) (oral, 2 mg, Day 1, 2 mg, N 6, read-out: AUCTlast, Mean): 889 ng·h/mL
AUC(0-t) (oral, 2 mg, Day 1, 2 mg, N 6, read-out: AUCTlast, Median): 955 ng·h/mL
Cmax (oral, 2 mg, Day 1, 2 mg, N 6, read-out: Cmax, GeoMean): 17.3 ng/mL
Cmax (oral, 2 mg, Day 1, 2 mg, N 6, read-out: Cmax, Mean): 17.7 ng/mL
Cmax (oral, 2 mg, Day 1, 2 mg, N 6, read-out: Cmax, Median): 17.5 ng/mL
Tmax (oral, 2 mg, Day 1, 2 mg, N 6, read-out: Tmax, GeoMean): 4.19 h
Tmax (oral, 2 mg, Day 1, 2 mg, N 6, read-out: Tmax, Mean): 4.28 h
Tmax (oral, 2 mg, Day 1, 2 mg, N 6, read-out: Tmax, Median): 4.17 h
Vd/F (oral, 2 mg, Day 1, 2 mg, N 6, read-out: Vz/F, GeoMean): 127 L
Vd/F (oral, 2 mg, Day 1, 2 mg, N 6, read-out: Vz/F, Mean): 131 L
Vd/F (oral, 2 mg, Day 1, 2 mg, N 6, read-out: Vz/F, Median): 118 L
half-life (oral, 1-4 mg, read-out: apparent terminal half life (t½) by dose level): 42 to 53 h
Tmax (oral, Days 1 and 21, 1-4 mg, read-out: Median Tmax by dose level): 4 to 8 h
AUC(0-inf) (oral, dosing range of 1 mg to 4 mg, read-out: AUC0-inf): 400 to 6000 ng·h/mL
AUC(0-inf) (po, 1 mg, Dose: 1 mg oral, Day 1, read-out: AUC(0-inf), individual subjects): 593 ng·h/mL
AUC(0-t) (po, 1 mg/day, Day 1, 1 mg/day oral (n = 5), read-out: AUC24 hr, Arithmetic Mean): 158 ng·h/mL
Cmax (po, 1 mg/day, Day 1, 1 mg/day oral (n = 5), read-out: Cmax, Arithmetic Mean): 9.6 ng/mL
Tmax (po, 1 mg/day, Day 1, 1 mg/day oral (n = 5), read-out: Median Tmax): 6 h
Tmax (po, 1 mg/day, Day 1, 1 mg/day oral (n = 5), read-out: Tmax (Range)): 2 to 8.08 h
half-life (po, 1 mg/day, Day 1, 1 mg/day oral (n = 5), read-out: t1/2, Arithmetic Mean (converted)): 41.1 h
AUC(0-t) (po, 1 mg/day, Day 21, 1 mg/day oral (n = 5), read-out: AUC24 hr, Arithmetic Mean): 458 ng·h/mL
Cmax (po, 1 mg/day, Day 21, 1 mg/day oral (n = 5), read-out: Cmax, Arithmetic Mean): 24.6 ng/mL
Tmax (po, 1 mg/day, Day 21, 1 mg/day oral (n = 5), read-out: Median Tmax): 8 h
Tmax (po, 1 mg/day, Day 21, 1 mg/day oral (n = 5), read-out: Tmax (Range)): 4 to 6.05 h
half-life (po, 1 mg/day, Day 21, 1 mg/day oral (n = 5), read-out: t1/2, Arithmetic Mean (converted)): 52.6 h
AUC(0-t) (po, 2 mg, Day 21, dose 2 mg oral once daily, GeoMean, N 6, read-out: AUC24hr): 897 ng·h/mL
Cmax (po, 2 mg, Day 21, dose 2 mg oral once daily, GeoMean, N 6, read-out: Cmax): 48.8 ng/mL
Tmax (po, 2 mg, Day 21, dose 2 mg oral once daily, GeoMean, N 6, read-out: Tmax): 3.64 h
half-life (po, 2 mg, Day 21, dose 2 mg oral once daily, GeoMean, N 6, read-out: apparent terminal half life (t½) (converted)): 42.8 h
Vd/F (po, 2 mg, Day 21, dose 2 mg oral once daily, GeoMean, N 6, read-out: volume of distribution (Vd/F)): 138 L
AUC(0-t) (po, 2 mg, Day 21, dose 2 mg oral once daily, Mean, N 6, read-out: AUC24hr): 911 ng·h/mL
Cmax (po, 2 mg, Day 21, dose 2 mg oral once daily, Mean, N 6, read-out: Cmax): 50 ng/mL
Tmax (po, 2 mg, Day 21, dose 2 mg oral once daily, Mean, N 6, read-out: Tmax): 4.01 h
half-life (po, 2 mg, Day 21, dose 2 mg oral once daily, Mean, N 6, read-out: apparent terminal half life (t½) (converted)): 43.4 h
Vd/F (po, 2 mg, Day 21, dose 2 mg oral once daily, Mean, N 6, read-out: volume of distribution (Vd/F)): 139 L
AUC(0-t) (po, 2 mg, Day 21, dose 2 mg oral once daily, Median, N 6, read-out: AUC24hr): 910 ng·h/mL
Cmax (po, 2 mg, Day 21, dose 2 mg oral once daily, Median, N 6, read-out: Cmax): 51 ng/mL
Tmax (po, 2 mg, Day 21, dose 2 mg oral once daily, Median, N 6, read-out: Tmax): 4 h
half-life (po, 2 mg, Day 21, dose 2 mg oral once daily, Median, N 6, read-out: apparent terminal half life (t½) (converted)): 45.7 h
Vd/F (po, 2 mg, Day 21, dose 2 mg oral once daily, Median, N 6, read-out: volume of distribution (Vd/F)): 132 L
AUC(0-inf) (po, 2 mg, Dose: 2 mg oral, Day 1, read-out: AUC(0-inf), individual subjects): 1010 ng·h/mL
AUC(0-t) (po, 2 mg/day, Day 1, 2 mg/day oral (n = 6), read-out: AUC24 hr, Arithmetic Mean): 305 ng·h/mL
Cmax (po, 2 mg/day, Day 1, 2 mg/day oral (n = 6), read-out: Cmax, Arithmetic Mean): 17.7 ng/mL
Tmax (po, 2 mg/day, Day 1, 2 mg/day oral (n = 6), read-out: Median Tmax): 4.17 h
Tmax (po, 2 mg/day, Day 1, 2 mg/day oral (n = 6), read-out: Tmax (Range)): 3 to 6 h
half-life (po, 2 mg/day, Day 1, 2 mg/day oral (n = 6), read-out: t1/2, Arithmetic Mean (converted)): 49 h
